Literature values in patent US20110245283A1, “Methods for predicting the response to statins” (priority 2009, published 2011).
Like-named read-outs stand apart in the source and are kept apart here.

Details: cited from earlier work

## Cc1nc2n(c(=O)c1CCN1CCC(c3noc4cc(F)ccc34)CC1)CCCC2 [Risperidone]
With Simva
  Increased risk of toxicity or reduced statin effectiveness: (+)
  Severity of the interaction: 3

## CO[C@H]1/C=C/O[C@@]2(C)Oc3c(C)c(O)c4c(O)c(c(/C=N/N5CCN(C)CC5)c(O)c4c3C2=O)NC(=O)/C(C)=C\C=C\[C@H](C)[C@H](O)[C@@H](C)[C@@H](O)[C@@H](C)[C@H](OC(C)=O)[C@@H]1C [Rifampin]
With Fluva
  Severity of the interaction: 1
With Simva
  Severity of the interaction: 2

## COCC(=O)O[C@]1(CCN(C)CCCc2nc3ccccc3[nH]2)CCc2cc(F)ccc2[C@@H]1C(C)C [Mibefradil]
With Atorva
  Increased risk of toxicity or reduced statin effectiveness: (+)
  Severity of the interaction: 3
With Fluva
  Increased risk of toxicity or reduced statin effectiveness: (+)
  Severity of the interaction: 1
With Lova
  Increased risk of toxicity or reduced statin effectiveness: (+)
  Severity of the interaction: 4
With Prava
  Increased risk of toxicity or reduced statin effectiveness: (+)
  Severity of the interaction: 1
With Simva
  Increased risk of toxicity or reduced statin effectiveness: (+)
  Severity of the interaction: 4

## Cholestyramine
With Fluva
  Severity of the interaction: 1
With Prava
  Severity of the interaction: 2

## CC[C@H]1OC(=O)[C@H](C)C(=O)[C@H](C)[C@@H](O[C@@H]2O[C@H](C)C[C@H](N(C)C)[C@H]2O)[C@](C)(OC)C[C@@H](C)C(=O)[C@H](C)[C@H]2N(CCCCn3cnc(-c4cccnc4)c3)C(=O)O[C@]12C [Telithromycin]
With Atorva
  Increased risk of toxicity or reduced statin effectiveness: (+)
  Severity of the interaction: 3
With Lova
  Increased risk of toxicity or reduced statin effectiveness: (+)
  Severity of the interaction: 3
With Simva
  Increased risk of toxicity or reduced statin effectiveness: (+)
  Severity of the interaction: 3

## CCC[C@@]1(CCc2ccccc2)CC(O)=C([C@H](CC)c2cccc(NS(=O)(=O)c3ccc(C(F)(F)F)cn3)c2)C(=O)O1 [Tipranavir]
With Lova
  Increased risk of toxicity or reduced statin effectiveness: (+)
  Severity of the interaction: 3
With Simva
  Increased risk of toxicity or reduced statin effectiveness: (+)
  Severity of the interaction: 3

## O=C(O)c1cccnc1 [Niacin]
With Atorva
  Increased risk of toxicity or reduced statin effectiveness: (+)
  Severity of the interaction: 3
With Fluva
  Increased risk of toxicity or reduced statin effectiveness: (+)
  Severity of the interaction: 2
With Lova
  Increased risk of toxicity or reduced statin effectiveness: (+)
  Severity of the interaction: 3
With Prava
  Increased risk of toxicity or reduced statin effectiveness: (+)
  Severity of the interaction: 2
With Rosuva
  Increased risk of toxicity or reduced statin effectiveness: (+)
  Severity of the interaction: 3
With Simva
  Increased risk of toxicity or reduced statin effectiveness: (+)
  Severity of the interaction: 3

## CC(C)(Oc1ccc(CCNC(=O)c2ccc(Cl)cc2)cc1)C(=O)O [Bezafibrate]
With Atorva
  Increased risk of toxicity or reduced statin effectiveness: (+)
  Severity of the interaction: 3
With Fluva
  Increased risk of toxicity or reduced statin effectiveness: (+)
  Severity of the interaction: 3
With Lova
  Increased risk of toxicity or reduced statin effectiveness: (+)
  Severity of the interaction: 3
With Prava
  Increased risk of toxicity or reduced statin effectiveness: (+)
  Severity of the interaction: 3
With Simva
  Increased risk of toxicity or reduced statin effectiveness: (+)
  Severity of the interaction: 3

## Colestipol
With Prava
  Severity of the interaction: 2

## NC(=O)N1c2ccccc2C=Cc2ccccc21 [Carbamazepine]
With Simva
  Severity of the interaction: 2

## Cc1ccc(C)c(OCCCC(C)(C)C(=O)O)c1 [Gemfibrozil]
With Atorva
  Increased risk of toxicity or reduced statin effectiveness: (+)
  Severity of the interaction: 3
With Fluva
  Increased risk of toxicity or reduced statin effectiveness: (+)
  Severity of the interaction: 3
With Lova
  Increased risk of toxicity or reduced statin effectiveness: (+)
  Severity of the interaction: 3
With Prava
  Increased risk of toxicity or reduced statin effectiveness: (+)
  Severity of the interaction: 3
With Rosuva
  Increased risk of toxicity or reduced statin effectiveness: (+)
  Severity of the interaction: 3
With Simva
  Increased risk of toxicity or reduced statin effectiveness: (+)
  Severity of the interaction: 3

## CCOC(=O)C(C)(C)Oc1ccc(Cl)cc1 [Clofibrate]
With Atorva
  Increased risk of toxicity or reduced statin effectiveness: (+)
  Severity of the interaction: 3
With Fluva
  Increased risk of toxicity or reduced statin effectiveness: (+)
  Severity of the interaction: 3
With Lova
  Increased risk of toxicity or reduced statin effectiveness: (+)
  Severity of the interaction: 3
With Prava
  Increased risk of toxicity or reduced statin effectiveness: (+)
  Severity of the interaction: 3
With Simva
  Increased risk of toxicity or reduced statin effectiveness: (+)
  Severity of the interaction: 3

## CC[C@H]1OC(=O)[C@H](C)[C@@H](O[C@H]2C[C@@](C)(OC)[C@@H](O)[C@H](C)O2)[C@H](C)[C@@H](O[C@@H]2O[C@H](C)C[C@H](N(C)C)[C@H]2O)[C@](C)(OC)C[C@@H](C)C(=O)[C@H](C)[C@@H](O)[C@]1(C)O [Clarithromycin]
With Atorva
  Increased risk of toxicity or reduced statin effectiveness: (+)
  Severity of the interaction: 3
With Lova
  Increased risk of toxicity or reduced statin effectiveness: (+)
  Severity of the interaction: 3
With Simva
  Increased risk of toxicity or reduced statin effectiveness: (+)
  Severity of the interaction: 3

## CC(C)(C)NC(=O)[C@@H]1C[C@@H]2CCCC[C@@H]2CN1C[C@@H](O)[C@H](Cc1ccccc1)NC(=O)[C@H](CC(N)=O)NC(=O)c1ccc2ccccc2n1 [Saquinavir]
With Atorva
  Increased risk of toxicity or reduced statin effectiveness: (+)
With Lova
  Increased risk of toxicity or reduced statin effectiveness: (+)
With Simva
  Increased risk of toxicity or reduced statin effectiveness: (+)

## CC(C)c1nc(CN(C)C(=O)N[C@H](C(=O)N[C@@H](Cc2ccccc2)C[C@H](O)[C@H](Cc2ccccc2)NC(=O)OCc2cncs2)C(C)C)cs1 [Rotinavir]
With Atorva
  Increased risk of toxicity or reduced statin effectiveness: (+)
  Severity of the interaction: 2
With Lova
  Increased risk of toxicity or reduced statin effectiveness: (+)
  Severity of the interaction: 3
With Simva
  Increased risk of toxicity or reduced statin effectiveness: (+)
  Severity of the interaction: 3

## O=C1NC(=O)C(c2ccccc2)(c2ccccc2)N1 [Phenytoin]
With Atorva
  Severity of the interaction: 2
With Fluva
  Increased risk of toxicity or reduced statin effectiveness: (+)
  Severity of the interaction: 2
With Simva
  Severity of the interaction: 2

## C#C[C@]1(O)CC[C@H]2[C@@H]3CCC4=Cc5oncc5C[C@]4(C)[C@H]3CC[C@@]21C [Danazol]
With Simva
  Increased risk of toxicity or reduced statin effectiveness: (+)

## COc1ccc2[nH]c([S+]([O-])Cc3ncc(C)c(OC)c3C)nc2c1 (centres unmarked) [Omeprazole]
With Fluva
  Increased risk of toxicity or reduced statin effectiveness: (+)
  Severity of the interaction: 1

## Cc1c(C)c2c(c(C)c1O)CCC(C)(COc1ccc(CC3SC(=O)NC3=O)cc1)O2 (centres unmarked) [Troglitazone]
With Simva
  Severity of the interaction: 1

## CC(C)OC(=O)C(C)(C)Oc1ccc(C(=O)c2ccc(Cl)cc2)cc1 [Fenofibrate]
With Atorva
  Increased risk of toxicity or reduced statin effectiveness: (+)
With Fluva
  Increased risk of toxicity or reduced statin effectiveness: (+)
With Lova
  Increased risk of toxicity or reduced statin effectiveness: (+)
With Prava
  Increased risk of toxicity or reduced statin effectiveness: (+)
With Simva
  Increased risk of toxicity or reduced statin effectiveness: (+)

## Cc1c(O)cccc1C(=O)N[C@@H](CSc1ccccc1)[C@H](O)CN1C[C@H]2CCCC[C@H]2C[C@H]1C(=O)NC(C)(C)C [Nelfinavir]
With Atorva
  Increased risk of toxicity or reduced statin effectiveness: (+)
  Severity of the interaction: 3
With Lova
  Increased risk of toxicity or reduced statin effectiveness: (+)
  Severity of the interaction: 3
With Simva
  Increased risk of toxicity or reduced statin effectiveness: (+)
  Severity of the interaction: 3

## Magaldrate
With Rosuva
  Severity of the interaction: 2

## COc1ccc2nc([S@@+]([O-])Cc3ncc(C)c(OC)c3C)[nH]c2c1 [Esomeprazole]
With Atorva
  Increased risk of toxicity or reduced statin effectiveness: (+)
  Severity of the interaction: 3

## CCN(CC)CCS(=O)(=O)[C@@H]1CCN2C(=O)c3coc(n3)CC(=O)C[C@H](O)/C=C(C)/C=C/CNC(=O)/C=C/[C@@H](C)[C@@H](C(C)C)OC(=O)[C@@H]12 [Dalfopristin]
With Atorva
  Increased risk of toxicity or reduced statin effectiveness: (+)
  Severity of the interaction: 3
With Fluva
  Increased risk of toxicity or reduced statin effectiveness: (+)
  Severity of the interaction: 3
With Lova
  Increased risk of toxicity or reduced statin effectiveness: (+)
  Severity of the interaction: 3
With Prava
  Increased risk of toxicity or reduced statin effectiveness: (+)
  Severity of the interaction: 3
With Simva
  Increased risk of toxicity or reduced statin effectiveness: (+)
  Severity of the interaction: 3

## Pectin
With Atorva
  Severity of the interaction: 2
With Fluva
  Severity of the interaction: 2
With Lova
  Severity of the interaction: 2
With Prava
  Severity of the interaction: 2
With Rosuva
  Severity of the interaction: 2
With Simva
  Severity of the interaction: 2

## COc1ccccc1Oc1c(NS(=O)(=O)c2ccc(C(C)(C)C)cc2)nc(-c2ncccn2)nc1OCCO [Bosentan]
With Atorva
  Severity of the interaction: 2
With Lova
  Severity of the interaction: 2
With Simva
  Severity of the interaction: 2
